The record followed here is patent KR20110062313A, “시티딘을 포함하는 약제학적 조성물” (주식회사 머젠스, priority 2009, dated 2011).

Experiment [1] relates to dry eye model in CBA/J mice (CBA/J 마우스의 건성안 모델). The experiment is classed as in vivo, mouse.
Experiment [2] has as its system HCE-T (human cornea epithelial cell) (HCE-T(사람 각막 상피 세포)). The experiment in a line: Hyaluronic acid amount in HCE-T medium by hyaluronan-ELISA. The arrangement: dose or concentration left out as unconfirmed. The class given is cell-based. To be noted: 1 ml medium containing cytidine, 72 h, 37℃. Background: ELISA stands for enzyme-linked immunosorbent assay.

“And” between values parts separate entries of the source, which are not always exact repeats. Equal values may be shown once.

Take `Nc1ccn([C@@H]2O[C@H](CO)[C@@H](O)[C@H]2O)c(=O)n1` [시티딘]: the “tear volume (mean)” value in experiment [1] (N 8) was 7.39 and 4.54 and 6.18 and 7.03. In addition, in experiment [1] (mouse, in vivo), the “tear volume compared with control group” value is recorded as “유의하게 눈물의 양이 증가” and the “tear volume compared with normal group” value is listed as “정상군에 해당하는 눈물량의 분비”. The “amount of hyaluronic acid (mean)” value in experiment [2] turned out to be 88.9. The “amount of hyaluronic acid compared with control group” value in experiment [2] (versus control) was “히아루론산의 양이 대조군에 비하여 증가하지 않음”.
